Reference: ChEMBL document CHEMBL3297730, “Identification of 2,3-disubstituted pyridines as potent, non-emetic PDE4 inhibitors” (Bioorg Med Chem Lett, 2014)

Experiments:
Cavia porcellus [1] = experiment: Induction of bronchodilation in ovalbumin-sensitized guinea pig at 10 mg/kg, po administered 4 hrs prior to ovalbumin challenge measured for 20 mins relative to vehicle-treated control; type: functional
Cavia porcellus [2] = species on record: Cavia porcellus; experiment: Inhibition of Hartley guinea pig PDE4 assessed as hydrolization of cAMP by measuring [3H]cAMP at 100 nM by radioisotope method
Cavia porcellus [3] = experiment: Induction of bronchodilation in ovalbumin-sensitized guinea pig at 10 mg/kg, po administered 1 hr prior to ovalbumin challenge measured for 20 mins relative to vehicle-treated control; type: functional
[4] = Drug level in ovalbumin-sensitized guinea pig lung treated with [14C]-2-(3-chlorophenoxy)-3-[3-(3-hydroxypyridin-4-yl)propoxy]pyridine at 10 mg/kg, po after 4 hrs; type: ADME, organism-based, Cavia porcellus; set-up: dose 10 mg/kg, route oral; settings: in vivo
[5] = Inhibition of Hartley guinea pig PDE4 assessed as hydrolization by radioisotope method; set-up: species or system Cavia porcellus
[6] = Drug level in ovalbumin-sensitized guinea pig plasma treated with [14C]-2-(3-chlorophenoxy)-3-[3-(3-hydroxypyridin-4-yl)propoxy]pyridine at 10 mg/kg, po after 4 hrs; type: ADME, organism-based, Cavia porcellus; set-up: dose 10 mg/kg, route oral; settings: in vivo
[7] = Drug level in ovalbumin-sensitized guinea pig trachea treated with [14C]-2-(3-chlorophenoxy)-3-[3-(3-hydroxypyridin-4-yl)propoxy]pyridine at 10 mg/kg, po after 2 hrs; type: ADME, organism-based, Cavia porcellus; set-up: dose 10 mg/kg, route oral; settings: in vivo
[8] = Drug level in ovalbumin-sensitized guinea pig lung treated with [14C]-2-(3-chlorophenoxy)-3-[3-(3-hydroxypyridin-4-yl)propoxy]pyridine at 10 mg/kg, po after 2 hrs; type: ADME, organism-based, Cavia porcellus; set-up: dose 10 mg/kg, route oral; settings: in vivo
[9] = Drug level in ovalbumin-sensitized guinea pig lung treated with [14C]-2-(3-chlorophenoxy)-3-[3-(3-hydroxypyridin-4-yl)propoxy]pyridine at 10 mg/kg, po after 0.5 hrs; type: ADME, organism-based, Cavia porcellus; set-up: dose 10 mg/kg, route oral; settings: in vivo
[10] = Drug level in ovalbumin-sensitized guinea pig plasma treated with [14C]-2-(3-chlorophenoxy)-3-[3-(3-hydroxypyridin-4-yl)propoxy]pyridine at 10 mg/kg, po after 0.5 hrs; type: ADME, organism-based, Cavia porcellus; set-up: dose 10 mg/kg, route oral; settings: in vivo
[11] = Drug level in ovalbumin-sensitized guinea pig trachea treated with [14C]-2-(3-chlorophenoxy)-3-[3-(3-hydroxypyridin-4-yl)propoxy]pyridine at 10 mg/kg, po after 0.5 hrs; type: ADME, organism-based, Cavia porcellus; set-up: dose 10 mg/kg, route oral; settings: in vivo
[12] = Drug level in ovalbumin-sensitized guinea pig plasma treated with [14C]-2-(3-chlorophenoxy)-3-[3-(3-hydroxypyridin-4-yl)propoxy]pyridine at 10 mg/kg, po after 2 hrs; type: ADME, organism-based, Cavia porcellus; set-up: dose 10 mg/kg, route oral; settings: in vivo
[13] = Drug level in ovalbumin-sensitized guinea pig trachea treated with [14C]-2-(3-chlorophenoxy)-3-[3-(3-hydroxypyridin-4-yl)propoxy]pyridine at 10 mg/kg, po after 4 hrs; type: ADME, organism-based, Cavia porcellus; set-up: dose 10 mg/kg, route oral; settings: in vivo
Mustela putorius furo [14] = experiment: Toxicity in po dosed Marshall ferret assessed as vomiting; type: organism-based; settings: in vivo
Mustela putorius furo [15] = experiment: Toxicity in Marshall ferret assessed as vomiting at 30 mg/kg, po after 2 hrs; type: organism-based; set-up: dose 30 mg/kg, route oral; settings: in vivo
Mus musculus = experiment: Inhibition of eosinophil infiltration in ovalbumin-sensitized mouse at 10 mg/kg, po qd for 2 days administered 30 mins prior to ovalbumin challenge relative to vehicle-treated control; type: functional
Mustela putorius furo [16] = experiment: Toxicity in Marshall ferret assessed as vomiting at 10 mg/kg, po after 2 hrs; type: organism-based; set-up: dose 10 mg/kg, route oral; settings: in vivo
Mustela putorius furo [17] = experiment: Toxicity in Marshall ferret assessed as vomiting at 1 mg/kg, po after 2 hrs; type: organism-based; set-up: dose 1 mg/kg, route oral; settings: in vivo

## Oc1cnccc1CCCOc1cccnc1Oc1cccc(F)c1
Cavia porcellus [1]
  Activity: 9%
Cavia porcellus [2]
  inhibition: 74%
Cavia porcellus [3]
  Activity: 55%

## O=S(=O)(O)Oc1cnccc1CCCOc1cccnc1Oc1cccc(Cl)c1
[4]
  Drug uptake: 79.9 ngequiv/g
[5]
  IC50: 0.837 µM
[6]
  Cp: 194.4 ngequiv/ml
[7]
  Drug uptake: 34.4 ngequiv/g
[8]
  Drug uptake: 78.9 ngequiv/g
[9]
  Drug uptake: 29.2 ngequiv/g
[10]
  Cp: 43.8 ngequiv/ml
[11]
  Drug uptake: 17.2 ngequiv/g
[12]
  Cp: 219.2 ngequiv/ml
[13]
  Drug uptake: 44 ngequiv/g

## Brc1cccc(Sc2ncccc2OCCCc2ccncc2)c1
Mustela putorius furo [14]
  Activity: Dose-dependent effect
Mustela putorius furo [15]
  Activity: Toxic
Mus musculus
  inhibition in vivo at 10 mg/kg: 50%
Cavia porcellus [2]
  inhibition: 80%
Cavia porcellus [3]
  Activity: 77%

## COc1ccc(C2CNC(=O)C2)cc1OC1CCCC1 (centres undefined) [ROLIPRAM]
Cavia porcellus [1]
  Activity: 13%
Mustela putorius furo [14]
  Activity: Dose-dependent effect
Mustela putorius furo [16]
  Activity: Toxic
Cavia porcellus [2]
  inhibition: 54%
Mustela putorius furo [17]
  Activity: Non-toxic
Cavia porcellus [3]
  Activity: 50%

## Brc1cccc(Oc2ncccc2OCCCc2ccncc2)c1
Mus musculus
  inhibition in vivo at 10 mg/kg: 23%
Cavia porcellus [2]
  inhibition: 80%
Cavia porcellus [3]
  Activity: 49%

## Oc1cnccc1CCCOc1cccnc1Oc1ccccc1Cl
Cavia porcellus [2]
  inhibition: 30%

## O=C(O)[C@H]1O[C@@H](Oc2cnccc2CCCOc2cccnc2Oc2cccc(Cl)c2)[C@H](O)[C@@H](O)[C@@H]1O
[4]
  Drug uptake: 33.8 ngequiv/g
[5]
  IC50: 11.5 µM
[6]
  Cp: 79.3 ngequiv/ml
[7]
  Drug uptake: 33.7 ngequiv/g
[8]
  Drug uptake: 59.5 ngequiv/g
[9]
  Drug uptake: 46.5 ngequiv/g
[10]
  Cp: 130.4 ngequiv/ml
[11]
  Drug uptake: 53.6 ngequiv/g
[12]
  Cp: 130.8 ngequiv/ml
[13]
  Drug uptake: 28.1 ngequiv/g

## Oc1cnccc1CCCOc1cccnc1Oc1ccc(Cl)cc1
Cavia porcellus [2]
  inhibition: 46%
